Laboratory results reported in patent US7998985B2, “1,5-diphenyl-3-pyridinylamino-1,5-dihydropyrrolidin-2-one as CB1 receptor modulator” (Eli Lilly and Company, priority 2006, dated 2011).

Tests used:
Male Sprague Dawley rats = assay: cFos activation in rat brain, alone and with clozapine; type: in vivo
Excerpt: Characterize Example 2 for its ability to activate gene expression and neurochemical efflux in cortical and subcortical regions and to interact with the prototypical atypical antipsychotic agent clozapine.
Methods: House Male Sprague Dawley rats (155-175 g) for 1 week prior to experimentation. Prepare Example 2 in a vehicle suspension of 1% Sodium carboxymethyl cellulose, 0.5% Sodium lauryl sulfate, 0.05% Antifoam, 0.085% Povidone and administer, to rats (e.g., male Sprague Dawley rats, 155-175 g) p.o. (a dose of 1 or 10 mg/kg). Control rats receive vehicle. Administer clozapine (Sigma) 1 hour later at a concentration of 8 mg/mL in a vehicle solution of 0.4% lactic acid at a dose of 8 mg/kg s.c. Sacrifice animals (n=7-8 per group) by decapitation 2 hours after administration of clozapine or vehicle for clozapine. Remove rapidly whole brains and immediately immerse in isopentane (2-methyl butane) over dry ice. Cut coronal sections through the prefrontal cortex (PFC), nucleus accumbens (NAc) and dorsolateral striatum (DL-Str) at 14 μm and perform Fos immunohistochemistry. Assess atypicality index (Robertson et al., 1994) using the following formula: Atypical Index=(NAcD−NAcV)−(DL-StrD−DL-StrV) where the average number of Fos-li neurons in NAc=nucleus accumbens, D=drug, V=vehicle, DL-Str=dorsolateral striatum. Analyze data using a one-way ANOVA followed by Newman-Keul's post hoc test (Graph Pad Prism 4.03). Set the level of significance at P<0.05.

human CB2 receptor [1] = biological target: T1, human CB2 receptor (Homo sapiens, UniProt P34972); assay: Antibody-capture SPA GTP-γ-35S binding, antagonist/inverse agonist mode, human CB2 (Sf9 membranes); type: biochemical; details: Human CB2 (Sf9 cells) membranes, Table 1
T1 construct: purchased Applied Cell Sciences, Gaithersburg, Md; PerkinElmer Life Sciences, Boston, Mass; host or cells: Sf9 insect cells (recombinant expression), membranes
T1 sequence (P34972 whole entry): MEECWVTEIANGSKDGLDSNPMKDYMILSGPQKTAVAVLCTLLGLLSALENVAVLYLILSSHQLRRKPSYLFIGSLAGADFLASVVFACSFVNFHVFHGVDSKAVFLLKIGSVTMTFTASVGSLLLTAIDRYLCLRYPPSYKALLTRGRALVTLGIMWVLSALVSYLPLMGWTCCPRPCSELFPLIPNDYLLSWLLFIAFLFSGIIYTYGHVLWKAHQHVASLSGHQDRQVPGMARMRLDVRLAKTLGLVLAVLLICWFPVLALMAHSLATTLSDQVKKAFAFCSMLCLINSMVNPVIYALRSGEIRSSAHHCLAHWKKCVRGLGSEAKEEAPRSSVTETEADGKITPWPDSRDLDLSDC

human CB2 receptor [2] = biological target: T1, human CB2 receptor; assay: GTP-γ-35S binding, agonist mode, human CB2 (Sf9 membranes); type: biochemical
rat CB1 receptor = biological target: T2, rat CB1 receptor (Rattus norvegicus, UniProt P20272); assay: Antibody-capture SPA GTP-γ-35S binding, antagonist/inverse agonist mode, rat CB1 (CHO membranes); type: biochemical; details: Rat CB1 (CHO cells) membranes; vs saturating methanandamide; mean ± SEM; read-out: Inverse Agonist Potency (Kb)
T2 construct: purchased Applied Cell Sciences, Gaithersburg, Md; PerkinElmer Life Sciences, Boston, Mass; host or cells: CHO cells (recombinant expression), membranes
T2 sequence (P20272 whole entry): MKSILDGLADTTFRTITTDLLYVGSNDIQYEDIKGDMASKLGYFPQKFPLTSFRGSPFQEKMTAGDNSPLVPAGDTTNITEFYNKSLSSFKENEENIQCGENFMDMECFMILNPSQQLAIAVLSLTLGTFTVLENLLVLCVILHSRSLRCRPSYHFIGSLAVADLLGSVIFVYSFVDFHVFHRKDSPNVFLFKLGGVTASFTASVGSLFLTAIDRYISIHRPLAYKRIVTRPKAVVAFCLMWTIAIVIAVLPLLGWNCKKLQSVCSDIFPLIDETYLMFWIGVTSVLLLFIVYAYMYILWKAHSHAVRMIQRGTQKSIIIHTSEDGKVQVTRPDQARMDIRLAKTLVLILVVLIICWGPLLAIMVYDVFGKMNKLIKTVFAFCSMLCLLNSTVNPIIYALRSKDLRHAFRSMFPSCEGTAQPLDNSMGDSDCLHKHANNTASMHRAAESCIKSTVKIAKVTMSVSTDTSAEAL
Protocol: (§1) Antibody-Capture SPA GTP-γ-^35S Binding
(§2) In cell membranes expressing human or rat CB1 or CB2 receptor, test (3R,5R)-3-[1-methyl-1-(6-trifluoromethyl-pyridin-3-yl)-ethylamino]-1-(4-trifluoromethyl-phenyl)-5-(3-trifluoromethoxy-phenyl)-pyrrolidin-2-one 4-methylbenzenesulfonate (referred to as “Example 2”) for its antagonist/inverse agonist functional GTP-binding. In a 96 well format using a modified antibody capture technique (DeLapp et al., 1999), measure GTP-γ^35S binding. Briefly incubate for 30 minutes at room temperature the GTP-binding assay buffer (20 mM Hepes, 100 mM NaCl, 5 mM MgCl2, pH 7.4), the CHO or Sf9 cell membranes expressing CB1 or CB2, (Applied Cell Sciences, Gaithersburg, Md.; PerkinElmer Life Sciences, Boston, Mass.; prepare membranes as previously described (DeLapp et al., 1999)), Example 2 and the 500 pM GTP-γ-^35S (PerkinElmer Life Sciences, Boston, Mass.). Perform antagonist dose responses in the presence of a saturating dose of a full agonist (methanandamide). […]
(§3) To analyze data, subtract background from all wells. […] Determine Kb values using a modification of the Cheng-Prusoff relationship: Kb=IC50/(1+[agonist]/EC50) where IC50 is determined from a four parameter fit of displacement curves, [agonist]=EC50 of full agonist, and EC50 is determined from a four parameter fit of a full agonist concentration response curve (Cheng and Prusoff 1973). […]

hCB1 [3] = biological target: T3, hCB1 (Homo sapiens, UniProt P21554); assay: GTP-γ-35S binding, agonist mode, human CB1 (Sf9 membranes); type: biochemical; set-up: purchased Applied Cell Sciences, Gaithersburg, Md; PerkinElmer Life Sciences, Boston, Mass; host or cells: Sf9 insect cells (recombinant expression), membranes
T3 sequence (P21554 whole entry): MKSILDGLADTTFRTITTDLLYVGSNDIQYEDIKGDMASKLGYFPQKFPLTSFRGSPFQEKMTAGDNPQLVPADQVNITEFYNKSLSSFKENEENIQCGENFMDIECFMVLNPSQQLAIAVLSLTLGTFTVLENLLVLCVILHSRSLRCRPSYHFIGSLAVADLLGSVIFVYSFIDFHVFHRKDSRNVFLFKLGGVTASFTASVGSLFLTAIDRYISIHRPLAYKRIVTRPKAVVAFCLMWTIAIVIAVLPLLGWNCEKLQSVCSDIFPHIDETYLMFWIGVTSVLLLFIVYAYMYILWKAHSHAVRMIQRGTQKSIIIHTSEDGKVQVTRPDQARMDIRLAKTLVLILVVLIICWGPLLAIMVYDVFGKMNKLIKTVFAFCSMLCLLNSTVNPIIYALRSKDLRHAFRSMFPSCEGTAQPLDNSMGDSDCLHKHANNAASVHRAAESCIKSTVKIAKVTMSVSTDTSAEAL

[4] = test system: alcohol-preferring (P) rats; assay: Progressive ratio responding maintained by ethanol; type: in vivo, rat; details: female P rats, progressive ratio schedule
Excerpt: Assess the ability of Example 2 to reduce the motivational drive controlling ethanol intake.
Methods: Study female alcohol-preferring (P) rats under a progressive ratio schedule in which responding produces 15% ethanol (v/v). Under the progressive ratio schedule, the response requirement for ethanol delivery increases from 1 to 2 and then increments by 2 after 3 ethanol presentations.

hCB1 [5] = biological target: T3, hCB1; assay: Antibody-capture SPA GTP-γ-35S binding, antagonist/inverse agonist mode, human CB1 (CHO membranes); type: biochemical; details: Human CB1 (CHO cells) membranes; vs saturating methanandamide; mean ± SEM; read-out: Inverse Agonist Potency (Kb)
Protocol: as §1, §2, §3

[6] = test system: female Sprague-Dawley rats; assay: Atypical antipsychotic (olanzapine) weight gain model; type: in vivo, rat; details: 0.3 and 1 mg/kg Example 2 plus olanzapine, days 15-28
Excerpt: Methods: Maintain adult lean, female Sprague-Dawley rats ad libitum on normal rodent chow Purina LabDiet 5001 (12.3% fat) and water. […] Follow food intake, monitor body weight and change in fat mass over a two week treatment.

[7] = normalised to full agonist methanandamide

SMILES: CC(C)(N[C@@H]1C[C@H](c2cccc(OC(F)(F)F)c2)N(c2ccc(C(F)(F)F)cc2)C1=O)c1ccc(C(F)(F)F)nc1.Cc1ccc(S(=O)(=O)O)cc1 [Example 2, (3R,5R)-3-[1-methyl-1-(6-trifluoromethyl-pyridin-3-yl)-ethylamino]-1-(4-trifluoromethyl-phenyl)-5-(3-trifluoromethoxy-phenyl)-pyrrolidin-2-one, 4-methylbenzenesulfonate (1:1)]
- effect on clozapine-induced Fos reactivity (Male Sprague Dawley rats; 1 and 10 mg/kg p.o. given with clozapine 8 mg/kg s.c.): enhancing the effects of clozapine alone
- cortical and subcortical Fos reactivity, compound alone (Male Sprague Dawley rats; Example 2 1 or 10 mg/kg p.o.): tend to or significantly enhance cortical and subcortical Fos reactivity
- atypicality (ventral vs. dorsal striatal Fos impact) (Male Sprague Dawley rats; Example 2 added to clozapine): a neural signature of greater atypicality
- Inverse Agonist Potency (Kb, nM) (human CB2 receptor [1]): No measurable activity
- Agonist Potency EC50 (nM) (human CB2 receptor [2]): No measurable activity
- Agonist Efficacy % (human CB2 receptor [2]; [7]): 0%
- Kb (rat CB1 receptor): 1.27 ± 0.2 nM
- Agonist Efficacy % (hCB1 [3]; [7]): −47.9 ± 4.7%
- EC50 (hCB1 [3]; read-out: Agonist Potency EC50): 0.58 ± 0.05 nM
- ethanol-seeking behavior and ethanol consumed ([4]; 15% ethanol, dose-dependently): Reduce ethanol-seeking behavior and the consumption of ethanol consumed
- reduction of breakpoint ([4]; F(4,20)=4.52, p=0.009): in a dose-dependent manner
- Kb (hCB1 [5]): 0.71 ± 0.26 nM
- fat free mass under olanzapine [6]: no changes in fat free mass
- fat mass gain under olanzapine [6]: significant reduction in fat mass gain
